IC50 data for 22 compounds are collected here from patent publication US12252488B2 (Nimbus Saturn, Inc., priority 2021, dated 2025).

The test deals with T1, HPK1 (Homo sapiens, UniProt Q92918).
T1 construct: purchased Invitrogen
T1 sequence (Q92918 whole entry): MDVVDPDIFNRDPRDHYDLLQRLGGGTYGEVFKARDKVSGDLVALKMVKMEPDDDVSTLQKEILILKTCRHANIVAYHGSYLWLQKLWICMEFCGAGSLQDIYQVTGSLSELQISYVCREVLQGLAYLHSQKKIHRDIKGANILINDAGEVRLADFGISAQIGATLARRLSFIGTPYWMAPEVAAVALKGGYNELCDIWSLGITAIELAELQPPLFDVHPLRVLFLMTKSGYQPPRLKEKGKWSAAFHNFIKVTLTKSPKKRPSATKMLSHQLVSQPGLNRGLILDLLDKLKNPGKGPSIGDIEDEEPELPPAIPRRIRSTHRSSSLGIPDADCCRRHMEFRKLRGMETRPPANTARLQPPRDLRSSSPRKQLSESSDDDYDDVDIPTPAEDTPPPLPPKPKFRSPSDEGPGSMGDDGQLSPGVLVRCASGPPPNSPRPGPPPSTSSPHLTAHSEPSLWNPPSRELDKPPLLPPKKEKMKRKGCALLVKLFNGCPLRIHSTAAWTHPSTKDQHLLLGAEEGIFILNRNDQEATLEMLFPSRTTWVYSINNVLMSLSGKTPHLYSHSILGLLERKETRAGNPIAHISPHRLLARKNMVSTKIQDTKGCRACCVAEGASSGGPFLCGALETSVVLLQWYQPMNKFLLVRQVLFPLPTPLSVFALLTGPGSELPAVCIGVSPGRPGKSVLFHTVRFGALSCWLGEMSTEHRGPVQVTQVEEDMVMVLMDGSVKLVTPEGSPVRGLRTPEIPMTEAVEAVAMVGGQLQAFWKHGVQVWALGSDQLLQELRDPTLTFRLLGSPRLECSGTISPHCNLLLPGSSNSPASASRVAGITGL
In words: HPK1 biochemical enzyme assay (microfluidic mobility shift assay). The settings on record: 1000 uM (1 mM) ATP; Caliper mobility shift; 1.5 nM HPK1; 30 min preincubation; read-out: HPK1 1000UMATP caliper IC50. On the procedure: Example 33. HPK1 Biochemical Enzyme Assay
HPK1 biochemical enzyme assay: HPK1 enzyme inhibition was measured using a microfluidic mobility shift assay. Reactions were performed in a 384-well plate, containing 1.5 nM HPK1 (Invitrogen), in assay buffer (Carna Biosciences; pH 7.4). Test compounds were titrated in ten point curves (top final assay concentration 3 μM), and preincubated with enzyme/substrate mix for 30 min prior to initiation of the reaction by addition of ATP (1 mM final concentration) and substrate (1 μM final concentration; Carna Biosciences) diluted in assay buffer supplemented by MgCl2 (final assay concentration of 5 mM). Following 60 min incubation at RT, the reaction was terminated by addition of 60 μl/well termination buffer (Carna Biosciences) and signal determination using a Caliper EZ Reader (Perkin Elmer, UK).
The compound numbers correspond to the compound numbers in Table 1. Compounds having an activity designated as “A” provided an IC50≤100 nM; compounds having an activity designated as “B” provided an IC50>100 nM and ≤1,000 nM; compounds having an activity designated as “C” provided an IC50>1,000 nM.
With `CC(C)Oc1cc(-c2cc(Nc3ccc(N4CCC(O)CC4)cn3)c3c(=O)[nH]ccc3n2)c(F)cc1C(=O)N1CCCCC1` [I-186, 2-[2-fluoro-5-isopropoxy-4-(piperidine-1-carbonyl)phenyl]-4-[[5-(4-hydroxy-1-piperidyl)-2-pyridyl]amino]-6H-1,6-naphthyridin-5-one], the IC50 (commonly the concentration at which inhibition is half-maximal) is at most 100 nM.
With `Cc1cc(-c2cc(Nc3ccc(N4CCC(O)CC4)cn3)c3c(=O)[nH]ccc3n2)c(F)cc1C(=O)N1CCCCC1` [I-114, 2-[2-fluoro-5-methyl-4-(piperidine-1-carbonyl)phenyl]-4-[[5-(4-hydroxy-1-piperidyl)-2-pyridyl]amino]-6H-1,6-naphthyridin-5-one] the figure was at most 100 nM.
With `COc1cc(-c2cc(Nc3ccc(N4CCC(O)CC4)cn3)c3c(=O)[nH]ccc3n2)c(F)cc1C(=O)N(C)C` [I-230, 5-fluoro-4-[4-[[5-(4-hydroxy-1-piperidyl)-2-pyridyl]amino]-5-oxo-6H-1,6-naphthyridin-2-yl]-2-methoxy-N,N-dimethyl-benzamide] the figure was at most 100 nM; with `CN(C(=O)C1(C)COC1)c1ccc(-c2cc(Nc3ccc(N4CCC(O)CC4)cn3)c3c(=O)[nH]ccc3n2)c(F)c1` [I-210, N-[3-fluoro-4-[4-[[5-(4-hydroxy-1-piperidyl)-2-pyridyl]amino]-5-oxo-6H-1,6-naphthyridin-2-yl]phenyl]-N,3-dimethyl-oxetane-3-carboxamide], at most 100 nM; with `CN1CCN(c2ccc(Nc3cc(-c4ccc(C(=O)N5CC6CCC5CC6)cc4F)nc4cc[nH]c(=O)c34)nc2)CC1` [I-278, 2-[4-(3-azabicyclo [2.2.2]octane-3-carbonyl)-2-fluoro-phenyl]-4-[[5-(4-methyl-piperazin-1-yl)-2-pyridyl]amino]-6H-1,6-naphthyridin 5-one], 100 to 1000 nM.
For the compound `CN1CCN(c2ccc(Nc3cc(-c4ccc(NC(=O)C5CCCCC5)cc4F)nc4cc[nH]c(=O)c34)nc2)CC1` [I-184, N-[3-fluoro-4-[4-[[5-(4-methyl-piperazin-1-yl)-2-pyridyl]amino]-5-oxo-6H-1,6-naphthyridin-2-yl]phenyl] cyclohexane carboxamide], the IC50 was over 1000 nM.
With `O=C(O)c1c[nH]c(=O)c2c(Nc3ccc(N4CCC(O)CC4)cn3)cc(-c3c(F)cccc3F)nc12` [I-39, 2-(2,6-difluorophenyl)-4-[[5-(4-hydroxy-1-piperidyl)-2-pyridyl]amino]-5-oxo-6H-1,6-naphthyridine-8-carboxylic Acid] the figure was over 1000 nM.
Consider `COc1cc(-c2cc(Nc3ccc(C#N)cn3)c3c(=O)[nH]ccc3n2)c(F)cc1C(=O)N1CCCCC1` [I-242, 6-[[2-[2-fluoro-5-methoxy-4-(piperidine-1-carbonyl)phenyl]-5-oxo-6H-1,6-naphthyridin-4-yl]amino] pyridine-3-carbonitrile], for which the IC50 lay in the range of 100 to 1000 nM.
With `CC(C)(C)c1ccc(F)c(-c2cc(Nc3ccc(N4CCC(O)CC4)cn3)c3c(=O)[nH]ccc3n2)c1` [I-96, 2-(5-tert-butyl-2-fluoro-phenyl)-4-[[5-(4-hydroxy-1-piperidyl)-2-pyridyl]amino]-6H-1,6-naphthyridin-5-one] the figure was 100 to 1000 nM; with `O=C(c1ccc(-c2cc(Nc3ccc(N4CCC(O)CC4)cn3)c3c(=O)[nH]ccc3n2)c(F)c1)N1CCCC(O)C1` (stereo not shown) [I-145, 2-[2-fluoro-4-(3-hydroxy-piperidine-1-carbonyl)phenyl]-4-[[5-(4-hydroxy-1-piperidyl)-2-pyridyl]amino]-6H-1,6-naphthyridin-5-one], over 1000 nM.
With `CC1(C(=O)Nc2ccc(-c3cc(Nc4ccc(N5CCNCC5)cn4)c4c(=O)[nH]ccc4n3)c(F)c2)CCC1` [I-219, N-[3-fluoro-4-[5-oxo-4-[(5-piperazin-1-yl-2-pyridyl)amino]-6H-1,6-naphthyridin-2-yl]phenyl]-1-methyl-cyclobutane-carboxamide] the figure was at most 100 nM; with `O=c1[nH]ccc2nc(C3CCOCC3)cc(Nc3ccc(N4CCC(O)CC4)cn3)c12` [I-36, 4-[[5-(4-hydroxy-1-piperidyl)-2-pyridyl]amino]-2-tetrahydropyran-4-yl-6H-1,6-naphthyridin-5-one], at most 100 nM.
With `CC(C)c1cc(Nc2ccc(N3CCC(O)CC3)cn2)c2c(=O)[nH]ccc2n1` [I-9, 4-[[5-(4-hydroxy-1-piperidyl)-2-pyridyl]amino]-2-isopropyl-6H-1,6-naphthyridin-5-one] the figure was 100 to 1000 nM.
Consider `CC1CCCN(C(=O)c2ccc(-c3cc(Nc4ccc(N5CCC(O)CC5)cn4)c4c(=O)[nH]ccc4n3)c(F)c2)C1` (stereo not shown) [I-135, 2-[2-fluoro-4-(3-methyl-piperidine-1-carbonyl)phenyl]-4-[[5-(4-hydroxy-1-piperidyl)-2-pyridyl]amino]-6H-1,6-naphthyridin-5-one], for which the 50% inhibitory concentration (IC50) is at most 100 nM.
With `O=C(c1ccc(F)c(-c2cc(Nc3ccc(N4CCC(O)CC4)cn3)c3c(=O)[nH]ccc3n2)c1)N1CCCCC1` [I-94, 2-[2-fluoro-5-(piperidine-1-carbonyl)phenyl]-4-[[5-(4-hydroxy-1-piperidyl)-2-pyridyl]amino]-6H-1,6-naphthyridin-5-one] the figure was at most 100 nM; with `COc1cc(-c2cc(Nc3ccc(N4CCNCC4)cn3)c3c(=O)[nH]ccc3n2)c(F)cc1C(=O)N1CCC1` [I-175, 2-[4-(azetidine-1-carbonyl)-2-fluoro-5-methoxy-phenyl]-4-[(5-piperazin-1-yl-2-pyridyl)amino]-6H-1,6-naphthyridin-5-one], 100 to 1000 nM.
With `O=C(O)c1ccc(-c2cc(Nc3ccc(N4CCC(O)CC4)cn3)c3c(=O)[nH]ccc3n2)c(F)c1` [I-134, 3-Fluoro-4-[4-[[5-(4-hydroxy-1-piperidyl)-2-pyridyl]amino]-5-oxo-6H-1,6-naphthyridin-2-yl]benzoic Acid] the figure was at most 100 nM; with `COc1cccc(F)c1-c1cc(Nc2ccc(N3CCC(O)CC3)cn2)c2c(=O)[nH]ccc2n1` [I-185, 2-(2-fluoro-6-methoxy-phenyl)-4-[[5-(4-hydroxy-1-piperidyl)-2-pyridyl]amino]-6H-1,6-naphthyridin-5-one], 100 to 1000 nM.
With `O=C(c1cc(F)c(-c2cc(Nc3ccc(N4CCC(O)CC4)cn3)c3c(=O)[nH]ccc3n2)cc1C1CC1)N1CCCCC1` [I-270, 2-[5-cyclopropyl-2-fluoro-4-(piperidine-1-carbonyl)phenyl]-4-[[5-(4-hydroxy-1-piperidyl)-2-pyridyl]amino]-6H-naphthyridin-5-one] the figure was at most 100 nM; with `O=C(Nc1ccc(-c2cc(Nc3ccc(N4CCC(O)CC4)cn3)c3c(=O)[nH]ccc3n2)c(F)c1)C1CCCC1` [I-154, N-[3-fluoro-4-[4-[[5-(4-hydroxy-1-piperidyl)-2-pyridyl]amino]-5-oxo-6H-1,6-naphthyridin-2-yl]phenyl] cyclo-pentane carboxamide], 100 to 1000 nM; with `CC(C)c1ccc(F)c(-c2cc(Nc3ccc(N4CCNCC4)cn3)c3c(=O)[nH]ccc3n2)c1` [I-110, 2-(2-fluoro-5-isopropyl-phenyl)-4-[(5-piperazin-1-yl-2-pyridyl)amino]-6H-1,6-naphthyridin-5-one], at most 100 nM.
As to `CN1CCN(c2ccc(Nc3cc(-c4cnc5c(c4)CC(=O)N5)nc4cc[nH]c(=O)c34)nc2)CC1` [I-227, 4-[[5-(4-methyl-piperazin-1-yl)-2-pyridyl]amino]-2-(2-oxo-1,3-dihydro-pyrrolo[2,3-b]pyridin-5-yl)-6H-1,6-naphthyridin-5-one], the IC50 was at most 100 nM.
